Measurements as given in patent US8796259B2, “N3-heteroaryl substituted triazoles and N5-heteroaryl substituted triazoles useful as axl inhibitors” (Rigel Pharmaceuticals, Inc., priority 2006, dated 2014).

Target: T1, Axl (Homo sapiens, UniProt P30530)
T1 construct: endogenous in cells; host or cells: HeLa cells
T1 sequence (P30530 26-894): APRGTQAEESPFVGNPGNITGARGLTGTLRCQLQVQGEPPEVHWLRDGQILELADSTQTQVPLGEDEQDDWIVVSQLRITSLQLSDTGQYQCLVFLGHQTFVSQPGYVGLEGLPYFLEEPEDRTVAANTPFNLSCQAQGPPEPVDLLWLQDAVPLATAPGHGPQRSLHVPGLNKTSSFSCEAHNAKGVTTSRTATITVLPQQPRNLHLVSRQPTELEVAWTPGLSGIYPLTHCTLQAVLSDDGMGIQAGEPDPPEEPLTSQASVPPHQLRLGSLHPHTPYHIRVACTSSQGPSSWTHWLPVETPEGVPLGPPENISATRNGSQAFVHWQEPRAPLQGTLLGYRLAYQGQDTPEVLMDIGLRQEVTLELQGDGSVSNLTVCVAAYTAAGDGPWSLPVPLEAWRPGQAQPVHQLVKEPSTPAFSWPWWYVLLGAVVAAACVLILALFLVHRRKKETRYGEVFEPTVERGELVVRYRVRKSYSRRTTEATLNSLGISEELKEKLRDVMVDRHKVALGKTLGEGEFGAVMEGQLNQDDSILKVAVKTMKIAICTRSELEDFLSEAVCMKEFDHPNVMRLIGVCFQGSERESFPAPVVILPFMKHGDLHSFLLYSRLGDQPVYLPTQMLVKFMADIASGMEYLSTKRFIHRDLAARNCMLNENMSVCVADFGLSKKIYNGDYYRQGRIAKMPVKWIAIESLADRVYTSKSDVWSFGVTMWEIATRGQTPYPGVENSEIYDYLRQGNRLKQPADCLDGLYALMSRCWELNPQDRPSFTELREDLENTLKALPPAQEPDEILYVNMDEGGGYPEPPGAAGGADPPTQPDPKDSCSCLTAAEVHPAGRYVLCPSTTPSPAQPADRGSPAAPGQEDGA
Experiment: Phospho-Akt in-cell Western assay (inhibition of Axl activity, Axl-antibody cross-linking stimulation)
Format: cell-based
Conditions: Hela cells, phospho-Akt readout
In short: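 HeLa cells on poly-L-lysine were starved 24 h in 0.5% FCS/DMEM with 500 ng/mL Axl/Fc, pre-treated with compound 1 h at 37 °C, then stimulated 5 min by cross-linked mouse anti-Axl/biotin anti-mouse antibody clusters. After formaldehyde fixation, phospho-Akt was detected by rabbit anti-phospho-Akt and HRP secondary with chemiluminescence read-out.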

[1] = compounds of formula (Ia), Table 1
[2] = compounds of formula (Ib), Table 2

Compound	IC50 [1] [µM]	IC50 [2] [µM]
Cc1cc(Nc2nc(N)n(-c3cc(-c4ccccc4)ncn3)n2)cnc1N1CCC(N2CCCC2)CC1 [compound 130, 1-(6-phenyl-pyrimidine-4-yl)-N^3-(3-methyl-2-(4-pyrrolidin-1-ylpiperidin-1-yl)pyridin-5-yl)-1H-1,2,4-triazole-3,5-diamine]	< 1	
Cc1csc2c(-n3nc(Nc4cnc(N5CCC(CN6CCCCC6)CC5)nc4)nc3N)nc(Cl)nc12 [compound 131, 1-(2-chloro-7-methylthieno [3,2-d]pyrimidin-4-yl)-N^3-(2-(4-(piperidin-1-ylmethyl)piperidin-1-yl)pyrimidin-5-yl)-1H-1,2,4-triazole-3,5-diamine]	< 1	
Cc1cc(Nc2nc(N)nn2-c2nnc(C)c3ccsc23)cnc1N1CCN([C@H]2C[C@@H]3CC[C@H]2C3)CC1 [compound 132, 1-(4-methylthieno[2,3-d]pyridazin-7-yl)-N^5-(2-(4-(1S,2S,4R)-bicyclo[2.2.1]heptan-2-ylpiperazin-1-yl)-3-methylpyridin-5-yl)-1H-1,2,4-triazole-3,5-diamine]		> 20
Cc1csc2c(-n3nc(N)nc3Nc3ccc(C=CCN4CCC(N5CCN(C)CC5)CC4)nc3)ncnc12 [compound 133, 1-(7-methylthieno[3,2-d]pyrimidin-4-yl)-N^5-(2-(3-(4-(4-methylpiperazin-1-yl)piperidin-1-yl)propen-1-yl)pyridin-5-yl)-1H-1,2,4-triazole-3,5-diamine]		< 1
